Activity calls are given as the source filed them. No cut-off for these calls is given here.
Columns and labels:
[1] = cells; settings: Rattus norvegicus
Description: Induction of rat oligodendrocyte precursor cells differentiation assessed as myelin basic protein expression by immunostaining based assay

[2] = Volume of distribution in C57BL/6 mouse at 1 mg/kg, iv administered as a single dose; format: ADME, organism-based; settings: in vivo
[3] = Brain to plasma permeability coefficient, Kp of the compound in C57BL/6 mouse after 0.5 hrs; format: ADME
[4] = Elimination half life in C57BL/6 mouse at 10 mg/kg, po administered as a single dose; format: ADME, organism-based; settings: in vivo, read-out: beta t1/2 (converted)
[5] = molecular target: hERG (KCNH2) (Homo sapiens, UniProt Q12809); assay: in vitro
Description: Inhibition of human ERG at 10 uM

[6] = cells; settings: Rattus norvegicus; remark: listed apart in the source
Description: Induction of rat oligodendrocyte precursor cells differentiation assessed as myelin basic protein expression by immunostaining based assay relative to control

[7] = Cmax in C57BL/6 mouse at 10 mg/kg, po administered as a single dose; format: ADME, organism-based; parameters: dose 10 mg/kg, route oral; settings: in vivo
[8] = in vitro; settings: mouse
Description: Metabolic stability in mouse assessed as parent compound remaining after 30 mins

[9] = molecular target: Cytochrome P450 3A4 (Homo sapiens, UniProt P08684); assay: Inhibition of CYP3A4 in human liver microsomes; format: ADME
[10] = molecular target: CYP2D6 (Homo sapiens, UniProt P10635); assay: Inhibition of CYP2D6 in human liver microsomes at 10 uM; format: ADME
[11] = AUClast in C57BL/6 mouse at 10 mg/kg, po administered as a single dose; format: ADME, organism-based; parameters: dose 10 mg/kg, route oral, time 0 - last; settings: in vivo
[12] = in vitro; settings: human
Description: Metabolic stability in human assessed as parent compound remaining after 30 mins

[13] = Brain to plasma permeability coefficient, Kp of the compound in C57BL/6 mouse after 4 hrs; format: ADME
[14] = Plasma clearance in C57BL/6 mouse at 1 mg/kg, iv administered as a single dose; format: ADME, organism-based
[15] = Oral bioavailability in C57BL/6 mouse at 10 mg/kg administered as a single dose; format: ADME, organism-based; settings: in vivo
[16] = test system: Mus musculus; assay: Immunosuppressive activity in MOG (35 to 55 residues)/pertussis toxin-induced experimental autoimmune encephalomyelitis C57BL/6 mouse model assessed as reduction in development of clinical symptoms at 50 mg/kg, po administered once a day starting from day 3 post immunization upto 17 days; format: functional, organism-based
[17] = molecular target: Cytochrome P450 2C9 (Homo sapiens, UniProt P11712); assay: Inhibition of CYP2C9 in human liver microsomes; format: ADME
[18] = physchem; settings: buffer, pH 7.4
Description: Lipophilicity, log D of the compound at pH 7.4

CYP2D6, sequence (P10635 whole entry): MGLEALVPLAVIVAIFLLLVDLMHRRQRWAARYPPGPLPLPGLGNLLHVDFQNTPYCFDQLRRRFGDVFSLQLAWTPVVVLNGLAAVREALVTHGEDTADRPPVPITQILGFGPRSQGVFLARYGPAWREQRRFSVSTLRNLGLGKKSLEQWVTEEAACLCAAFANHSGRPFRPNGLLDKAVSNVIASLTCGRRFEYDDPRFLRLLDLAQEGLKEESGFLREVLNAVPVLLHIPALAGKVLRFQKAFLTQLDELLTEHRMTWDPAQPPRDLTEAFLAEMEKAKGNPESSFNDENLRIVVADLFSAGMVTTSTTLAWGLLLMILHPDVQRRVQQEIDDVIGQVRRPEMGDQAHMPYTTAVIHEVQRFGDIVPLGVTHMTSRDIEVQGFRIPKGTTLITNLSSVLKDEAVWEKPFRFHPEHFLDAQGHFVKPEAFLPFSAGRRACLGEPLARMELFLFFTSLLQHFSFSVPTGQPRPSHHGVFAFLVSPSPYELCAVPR
Cytochrome P450 2C9, sequence (P11712 whole entry): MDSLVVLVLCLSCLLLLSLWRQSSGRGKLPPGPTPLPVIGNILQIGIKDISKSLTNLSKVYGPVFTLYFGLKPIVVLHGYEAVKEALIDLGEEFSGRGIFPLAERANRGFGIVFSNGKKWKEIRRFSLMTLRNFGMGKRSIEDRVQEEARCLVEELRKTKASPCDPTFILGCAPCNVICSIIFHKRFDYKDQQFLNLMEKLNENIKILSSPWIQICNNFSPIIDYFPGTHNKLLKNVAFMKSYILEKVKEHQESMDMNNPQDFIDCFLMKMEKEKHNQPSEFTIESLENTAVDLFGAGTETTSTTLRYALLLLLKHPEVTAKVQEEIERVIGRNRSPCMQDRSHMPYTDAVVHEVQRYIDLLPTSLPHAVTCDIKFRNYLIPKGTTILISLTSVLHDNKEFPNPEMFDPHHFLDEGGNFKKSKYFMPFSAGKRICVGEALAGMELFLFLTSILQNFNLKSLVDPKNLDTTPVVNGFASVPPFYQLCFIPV
Cytochrome P450 3A4, sequence (P08684 whole entry): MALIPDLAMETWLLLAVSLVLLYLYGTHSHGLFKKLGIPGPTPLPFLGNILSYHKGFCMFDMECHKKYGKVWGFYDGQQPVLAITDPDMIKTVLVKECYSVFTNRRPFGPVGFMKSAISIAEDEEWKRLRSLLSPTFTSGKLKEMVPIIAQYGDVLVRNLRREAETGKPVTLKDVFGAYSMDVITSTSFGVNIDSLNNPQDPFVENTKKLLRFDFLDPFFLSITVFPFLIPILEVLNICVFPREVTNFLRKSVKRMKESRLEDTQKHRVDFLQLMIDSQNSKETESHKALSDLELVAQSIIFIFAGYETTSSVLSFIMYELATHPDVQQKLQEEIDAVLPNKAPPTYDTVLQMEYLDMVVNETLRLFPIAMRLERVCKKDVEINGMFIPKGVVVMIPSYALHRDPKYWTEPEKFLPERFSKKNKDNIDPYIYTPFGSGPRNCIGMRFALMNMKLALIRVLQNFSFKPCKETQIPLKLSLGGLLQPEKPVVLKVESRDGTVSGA
hERG (KCNH2), sequence (Q12809 whole entry): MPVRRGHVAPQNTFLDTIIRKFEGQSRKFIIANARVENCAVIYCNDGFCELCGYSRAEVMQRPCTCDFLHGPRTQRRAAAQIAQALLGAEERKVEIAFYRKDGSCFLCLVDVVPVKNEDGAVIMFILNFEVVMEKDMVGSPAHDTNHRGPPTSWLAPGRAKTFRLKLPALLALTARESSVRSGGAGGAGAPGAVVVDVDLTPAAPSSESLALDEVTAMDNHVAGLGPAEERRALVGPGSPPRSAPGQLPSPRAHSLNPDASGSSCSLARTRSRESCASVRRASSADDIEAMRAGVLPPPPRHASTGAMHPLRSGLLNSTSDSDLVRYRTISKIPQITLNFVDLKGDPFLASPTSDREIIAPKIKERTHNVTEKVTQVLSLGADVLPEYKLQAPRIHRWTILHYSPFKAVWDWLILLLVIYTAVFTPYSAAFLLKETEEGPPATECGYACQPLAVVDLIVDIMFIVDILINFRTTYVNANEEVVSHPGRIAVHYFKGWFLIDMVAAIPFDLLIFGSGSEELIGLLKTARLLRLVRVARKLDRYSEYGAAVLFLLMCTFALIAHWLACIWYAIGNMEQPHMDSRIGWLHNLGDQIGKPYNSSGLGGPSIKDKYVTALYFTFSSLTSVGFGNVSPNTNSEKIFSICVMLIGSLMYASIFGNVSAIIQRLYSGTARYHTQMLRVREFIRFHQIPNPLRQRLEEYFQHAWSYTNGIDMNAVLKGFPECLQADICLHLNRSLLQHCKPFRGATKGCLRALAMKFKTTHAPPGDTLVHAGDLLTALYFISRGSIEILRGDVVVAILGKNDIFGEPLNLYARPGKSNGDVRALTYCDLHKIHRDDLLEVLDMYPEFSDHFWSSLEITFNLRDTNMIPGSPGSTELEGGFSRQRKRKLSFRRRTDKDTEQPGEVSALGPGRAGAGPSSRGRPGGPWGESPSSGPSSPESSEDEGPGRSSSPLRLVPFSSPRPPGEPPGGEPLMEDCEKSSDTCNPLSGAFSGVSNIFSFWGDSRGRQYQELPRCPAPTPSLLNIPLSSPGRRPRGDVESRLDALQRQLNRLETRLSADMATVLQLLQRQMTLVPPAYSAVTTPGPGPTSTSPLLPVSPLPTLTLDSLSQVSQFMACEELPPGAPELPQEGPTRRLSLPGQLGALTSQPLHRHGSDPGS

Compound	EC50 [1]	further results
O=C1c2cc(Cl)ccc2NC12CCN(CC1CCOCC1)CC2	320 nM	–
CC(C)c1ccc2c(c1)C(=O)C1(CCN(CCc3ccccc3)CC1)N2	540 nM	–
O=C1c2cc(C(F)(F)F)ccc2NC12CCN(CC1CCOCC1)CC2	3.2 nM	Vd [2]: 31.5 L/kg; Kp at 0.5 h [3]: 25.5; half-life [4]: 6.4 h; inhibition at 10 µM [5]: 94%; Emax [6]: 240%; Cmax [7]: 308 ng/mL; remaining at 0.5 h [8]: 68%; IC50 [9]: > 18000 nM; inhibition at 10 µM [10]: 70%; AUC(0-t) [11]: 1780 ng·h/mL; remaining at 0.5 h [12]: 35%; Kp at 4 h [13]: 50.9; clearance [14]: 79.2 mL/min/kg; bioavailability [15]: 116%; Activity [16]: Active; IC50 [17]: > 18000 nM; logD [18]: 2.8
COc1ccc2c(c1)C(=O)C1(CCN(CC3CCOCC3)CC1)N2	970 nM	–
CC(C)c1ccc2c(c1)C(=O)C1(CCN(S(=O)(=O)C3CC3)CC1)N2	> 10000 nM	–
CC(C)c1ccc2c(c1)C(=O)C1(CCN(C(=O)C3CC3)CC1)N2	> 10000 nM	–
OC1c2cc(C(F)(F)F)ccc2NC12CCN(CC1CCOCC1)CC2 (stereo unspecified)	520 nM	–
CC(C)c1ccc2c(c1)C(=O)C1(CCN(Cc3ccccc3)CC1)N2	330 nM	–
O=C1c2ccccc2NC12CCN(CC1CCOCC1)CC2	550 nM	–
O=C1c2cc(O)ccc2NC12CCN(CC1CCOCC1)CC2	> 10000 nM	–
O=C1c2cc(C(F)(F)F)ccc2OC12CCN(CC1CCOCC1)CC2	480 nM	–
CC(C)CN1CCC2(CC1)Nc1ccc(C(C)C)cc1C2=O	330 nM	–
CCCN1CCC2(CC1)Nc1ccc(C(C)C)cc1C2=O	550 nM	–
CN1c2ccc(C(F)(F)F)cc2CC12CCN(CC1CCOCC1)CC2	7100 nM	–

The next lines start with results.

EC50 [1]	Compound	further results
9.3 nM	CN1c2ccc(C(F)(F)F)cc2C(=O)C12CCN(CC1CCOCC1)CC2	–
5.7 nM	COC1c2cc(C(F)(F)F)ccc2NC12CCN(CC1CCOCC1)CC2 (stereo unspecified)	–
59 nM	CC(C)Oc1ccc2c(c1)C(=O)C1(CCN(CC3CCOCC3)CC1)N2	–
16 nM	CC(C)c1ccc2c(c1)C(=O)C1(CCN(CC3CCC3)CC1)N2	–
4.6 nM	CC(C)c1ccc2c(c1)C(=O)C1(CCN(CC3CCOCC3)CC1)N2	–
37 nM	CC(C)c1ccc2c(c1)C(=O)C1(CCN(CC3CCCCC3)CC1)N2	–
25 nM	CC(C)c1ccc2c(c1)C(=O)C1(CCN(CC3CCCC3)CC1)N2	–
240 nM	FC(F)(F)c1ccc2c(c1)CC1(CCN(CC3CCOCC3)CC1)N2	–
110 nM	O=C1c2cc(C(F)(F)F)ccc2CC12CCN(CC1CCOCC1)CC2	–
9.9 nM	CC(C)(C)c1ccc2c(c1)C(=O)C1(CCN(CC3CCOCC3)CC1)N2	–

— ChEMBL document CHEMBL4627279, “Discovery and structure-activity relationships of spiroindolines as novel inducers of oligodendrocyte progenitor cell differentiation” (Bioorg Med Chem, 2020)
